Results reported in patent US12617783B2, “Heterocyclic GLP-1R agonists” (BIOMEA FUSION, INC., priority 2024, dated 2026).
Like-named read-outs stand apart in the source and are kept apart here.

Tests used:
[1] = Pharmacokinetic analysis in male SD rats; format: in vivo; details: for Oral F: 5.0 mg/kg po vs 1.0 mg/kg iv; for AUC(0-inf) / clearance / half-life / Vd / Cmax / Tmax: Sprague-Dawley (SD), rat, plasma; for Vd: read-out: Vdss; for exposure compared with Orforglipron: same doses (iv 1 mg/kg and po 5 mg/kg)
Method: The rats have free access to food and water. Blood samples were collected pre-dose and 0.083, 0.25, 0.5, 1, 2, 4, 8, 24 hours post dose for i.v. administration group. Blood samples were also collected pre-dose and 0.25, 0.5, 1, 2, 4, 8, and 24 hours after administration in orally dosing group.

human GLP-1R [2] = molecular target: T1, human GLP-1R (Homo sapiens, UniProt P43220); assay: GLP-1R cAMP assay (Example B1a, HTRF, 30 min at room temperature); format: cell-based; details: for EC50 Ratio: potency ratio of stereoisomer pair (less potent / more potent isomer)
T1 construct: host or cells: HEK293
T1 sequence (P43220 24-463): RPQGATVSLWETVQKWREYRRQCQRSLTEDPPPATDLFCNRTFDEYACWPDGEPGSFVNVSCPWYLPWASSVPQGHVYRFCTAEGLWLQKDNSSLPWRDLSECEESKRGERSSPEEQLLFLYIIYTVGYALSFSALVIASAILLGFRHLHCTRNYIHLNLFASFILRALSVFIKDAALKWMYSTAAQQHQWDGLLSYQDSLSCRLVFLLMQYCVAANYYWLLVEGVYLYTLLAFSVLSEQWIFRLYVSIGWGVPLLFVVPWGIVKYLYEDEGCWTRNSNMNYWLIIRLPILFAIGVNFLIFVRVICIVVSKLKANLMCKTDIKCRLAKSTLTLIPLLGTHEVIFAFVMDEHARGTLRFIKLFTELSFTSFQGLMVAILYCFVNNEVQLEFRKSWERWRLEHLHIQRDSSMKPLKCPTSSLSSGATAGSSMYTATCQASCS
In short: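 Competitive HTRF read-out of cAMP after 30 min room-temperature stimulation, BETP absent, of human GLP-1R-HEK293 cells (1,000/well) in HEPES buffer with 500 μM IBMX and 0.1% BSA. Activation normalised to GLP-1(7-37) positive control. EC50 from 4-parameter non-linear regression.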

[3] = male, cynomolgus monkey, in vivo
Method: (§1) Pharmacokinetic Analysis of the Compound 36, Compound 121, Compound 214, and Orforglipron in Cynomolgus Monkeys
(§2) Non naïve male cynomolgus monkeys (n=3 monkeys/group) were fasted overnight and fed 4 hours post dose. Compounds of the present application were formulated in 10% polyethylene glycol 400/10% propylene glycol/80% glycine buffer (100 mM glycine, 64 mM NaOH, pH 10).
(§3) The compound was administered by i.v. infusion for 30 minutes at 0.12 mg/kg (dose volume 1 mL/kg at a speed of 2 mL/kg/h) or orally doses of 0.36 mg/kg. Blood samples were collected pre-dose and 0.25, 0.5 (just before the infusion is stopped), 0.75, 1, 1.5, 2.5, 4, 8, 16, 24 hr post dose for i.v. administration group. Blood samples were also collected pre-dose, 0.5, 1, 2, 3, 4, 8, 16 and 24 hr after administration in orally dosing group.

in vivo = details: male, cynomolgus monkey
Method: as §1, §2, §3

[4] = system: islets from a non-diabetic donor; assay: Glucose-stimulated insulin secretion (GSIS) in non-diabetic donor islets cultured ex vivo; format: cell-based; details: compared with orforglipron or DMSO
Method: Donor islets cultured ex vivo were assayed for GSIS in the presence of compound 36 (cpd 36), orforglipron or DMSO. Basal insulin secretion, stimulated insulin secretion and secretion index were measured.
Donor islets cultured ex vivo were assayed for GSIS in the presence of compound 214, orforglipron or DMSO. Basal insulin secretion, stimulated insulin secretion and secretion index were measured.

human GLP-1R [5] = molecular target: T1, human GLP-1R; assay: GLP-1R cAMP assay (Example B1b, HTRF, 30 min at 37°); format: cell-based; details: cAMP accumulation in HEK293 expressing human GLP-1R, no BETP, 30 min at 37° (Method B1b), Table 1
Method: Assay was carried out with HEK293 expressing human GLP-1R using HTRF assay, developed by Wuxi Apptec. The method is a competitive assay between native cAMP produced by the cells and exogenous cAMP labeled with a proprietary dye d2. The tracer binding is visualized by a mAb anti-cAMP labeled with Cryptate. The signal (i.e. energy transfer) is inversely proportional to the concentration of CAMP in either standard or experimental sample. Compounds were tested in the absence of BETP. Ten microliter of cell suspension in assay buffer (5 mM HEPES, 500 μM IBMX, 0.1% BSA) were added to each well (1,000 cells per well) in a low volume 384-well plate for the assay. Serially diluted compounds were added in 100 nL volume to duplicate wells, by Labcyte Echo. GLP-1 (7-37) was used as positive control. Assay plate was incubated for 30 minutes at 37°. Stock of cAMP Detection Solution was prepared by mixing 38 parts of cAMP lysis buffer, 1 part of cAMP-D2, 1 part of anti-cAMP cryptate reagent (Cisbio #62AM4PEJ). Ten microliter of the cAMP Detection Solution was added to each well, and the assay plate was incubated for 1 hour at room temperature in the dark. Plates were read on Envision plate reader. The data were analyzed by ScreenUltra in Dotmatics, with % activation expressed using following formula: (Signal ratio […]*10000−negative control)/(postive control−negative control)*100. Dose response curves were plotted and EC50 values calculated by non-linear regression using 4-parameter fit. The potency (EC50) values for cAMP accumulation in HEK293 cells are reported in the Table 1 below (for compounds ID 610-708).

[6] = Pharmacokinetic analysis in cynomolgus monkeys
Method: as §1, §2, §3

[7] = Table 1d, stereoisomer pairs, read-out: EC50
[8] = cAMP accumulation in HEK293 expressing human GLP-1R, no BETP, 30 min room temperature (Method B1a, compounds ID 1-609), Table 1, read-out: EC50
[9] = text to Table 1d, bridge atoms configured into the plane or away from the reader, read-out: potency (EC50)
[10] = male, cynomolgus monkey, plasma, iv, 0.12 mg/kg
[11] = male, cynomolgus monkey, plasma, po, 0.36 mg/kg

Compound	Oral F [1]	AUC(0-inf) ([1]; 1.0 mg/kg iv)	clearance ([1]; 1.0 mg/kg iv)	half-life ([1]; 1.0 mg/kg iv)	Vd ([1]; 1.0 mg/kg iv)	AUC(0-inf) ([1]; 5.0 mg/kg po)	Cmax ([1]; 5.0 mg/kg po)	Tmax ([1]; 5.0 mg/kg po)	half-life ([1]; 5.0 mg/kg po)	exposure compared with Orforglipron [1]	EC50 Ratio (human GLP-1R [2]; Table 1d)	EC50 (human GLP-1R [2]; [7])	EC50 (human GLP-1R [2]; [8])	EC50 (human GLP-1R [2]; [9])	Oral F [3]	AUC(0-inf) (in vivo; iv, 0.12 mg/kg)	Vd (in vivo; iv, 0.12 mg/kg)	clearance (in vivo; iv, 0.12 mg/kg)	half-life (in vivo; iv, 0.12 mg/kg)	EC50 (human GLP-1R [5])	other results
Cc1cc(-n2nc3c(c2-n2ccn(-c4ccc5c(cnn5C)c4F)c2=O)[C@@H]2COC[C@H](C3)N2C(=O)c2cc3cc([C@H]4CCOC(C)(C)C4)ccc3n2[C@@]2(c3noc(=O)[nH]3)C[C@@H]2C)cc(C)c1F [Compound 121, 3-((1S,2S)-1-(5-((S)-2,2-dimethyltetrahydro-2H-pyran-4-yl)-2-((4R,8S)-3-(3-(4-fluoro-1-methyl-1H-indazol-5-yl)-2-oxo-2,3-dihydro-1H-imidazol-1-yl)-2-(4-fluoro-3,5-dimethylphenyl)-2,4,5,7,8,9-hexahydro-4,8-epiminooxocino [5,4-c]pyrazole-10-carbonyl)-1H-indol-1-yl)-2-methylcyclopropyl)-1,2,4-oxadiazol-5 (4H)-one]	54.7%	3330 ng·h/mL	5.02 mL/min/kg	3.14 h	1.24 L/kg	9120 ng·h/mL	923 ng/mL	3.33 h	3.47 h	significant higher exposure	>122	82 nM	82 nM	< 1000 nM	22.2%	182 ng·h/mL	1.66 L/kg	11.4 mL/min/kg	2.26 h	–	AUC(0-inf) (in vivo; po, 0.36 mg/kg): 121 ng·h/mL; Cmax (in vivo; po, 0.36 mg/kg): 28 ng/mL; Tmax (in vivo; po, 0.36 mg/kg): 2 h; half-life (in vivo; po, 0.36 mg/kg): 1.94 h
Cc1cc(-n2nc3c(c2-n2ccn(-c4ccc5c(cnn5C)c4F)c2=O)[C@@H]2CC[C@H](C3)N2C(=O)c2cc3cc([C@H]4CCOC5(CC5)C4)ccc3n2[C@@]2(c3noc(=O)[nH]3)C[C@@H]2C)cc(C)c1F [Compound 214, 3-((1S,2S)-1-(2-((4S,7R)-3-(3-(4-fluoro-1-methyl-1H-indazol-5-yl)-2-oxo-2,3-dihydro-1H-imidazol-1-yl)-2-(4-fluoro-3,5-dimethylphenyl)-2,4,5,6,7,8-hexahydro-4,7-epiminocyclohepta [c]pyrazole-9-carbonyl)-5-((S)-4-oxaspiro[2.5]octan-7-yl)-1H-indol-1-yl)-2-methylcyclopropyl)-1,2,4-oxadiazol-5 (4H)-one]	32.6%	4640 ng·h/mL	3.68 mL/min/kg	4.83 h	1.08 L/kg	7510 ng·h/mL	640 ng/mL	2.67 h	5.14 h	significant higher exposure	>13	52.3 nM	52.3 nM	< 1000 nM	54.0%	619 ng·h/mL	0.77 L/kg	3.4 mL/min/kg	3.66 h	–	glucose-stimulated insulin secretion in islets from a non-diabetic donor [4]: increases in glucose-stimulated insulin secretion; AUC(0-inf) (in vivo; po, 0.36 mg/kg): 1000 ng·h/mL; Cmax (in vivo; po, 0.36 mg/kg): 149 ng/mL; Tmax (in vivo; po, 0.36 mg/kg): 2 h; half-life (in vivo; po, 0.36 mg/kg): 3.56 h
Cc1cc(-n2nc3c(c2-n2ccn(-c4ccc5c(c4)C4(CC4)C(=O)N5C)c2=O)[C@@H]2CCC[C@H](C3)N2C(=O)c2cc3cc([C@H]4CCOC(C)(C)C4)ccc3n2[C@@]2(c3noc(=O)[nH]3)C[C@@H]2C)cc(C)c1F [Compound 714, 3-((1S,2S)-1-(5-((S)-2,2-dimethyltetrahydro-2H-pyran-4-yl)-2-((4S,8R)-2-(4-fluoro-3,5-dimethylphenyl)-3-(3-(1′-methyl-2′-oxospiro[cyclopropane-1,3′-indolin]-5′-yl)-2-oxo-2,3-dihydro-1H-imidazol-1-yl)-4,5,6,7,8,9-hexahydro-2H-[4,8]epiminocycloocta [c]pyrazole-10-carbonyl)-1H-indol-1-yl)-2-methylcyclopropyl)-1,2,4-oxadiazol-5 (4H)-one]	–	–	–	–	–	–	–	–	–	–	–	–	–	–	–	–	–	–	–	0.002 µM	–
Cc1cc(-n2nc3c(c2-n2ccn(-c4ccc5c(cnn5C5CC5)c4F)c2=O)[C@@H]2COC[C@H](C3)N2C(=O)c2cc3cc(C4CCOCC4)ccc3n2[C@@]2(c3noc(=O)[nH]3)C[C@@H]2C)cc(C)c1F [Compound 715, 3-((1S,2S)-1-(2-((4R,8S)-3-(3-(1-cyclopropyl-4-fluoro-1H-indazol-5-yl)-2-oxo-2,3-dihydro-1H-imidazol-1-yl)-2-(4-fluoro-3,5-dimethylphenyl)-2,4,5,7,8,9-hexahydro-4,8-epiminooxocino [5,4-c]pyrazole-10-carbonyl)-5-(tetrahydro-2H-pyran-4-yl)-1H-indol-1-yl)-2-methylcyclopropyl)-1,2,4-oxadiazol-5 (4H)-one]	–	–	–	–	–	–	–	–	–	–	–	–	–	–	–	–	–	–	–	0.004 µM	–
Cc1cc(-n2nc3c(c2-n2ccn(-c4ccc5c(cnn5C)c4F)c2=O)[C@@H]2CC[C@H](C3)N2C(=O)c2cc3cc(C4CCOC(C)(C)C4)c(F)cc3n2[C@@]2(c3noc(=O)[nH]3)C[C@@H]2C)cc(C)c1F (stereo partly drawn) [Compound 716, 3-[(1S,2S)-1-[5-(2,2-dimethyltetrahydropyran-4-yl)-6-fluoro-2-[(1S,8R)-4-(4-fluoro-3,5-dimethyl-phenyl)-3-[3-(4-fluoro-1-methyl-indazol-5-yl)-2-oxo-imidazol-1-yl]-4,5,11-triazatricyclo[6.2.1.02,6]undeca-2,5-diene-11-carbonyl]indol-1-yl]-2-methyl-cyclopropyl]-4H-1,2,4-oxadiazol-5-one]	–	–	–	–	–	–	–	–	–	–	–	–	–	–	–	–	–	–	–	0.005 µM	–
Cc1cc(-n2nc3c(c2-n2ccn(-c4ccc5c(cnn5C)c4F)c2=O)[C@H](C)N(C(=O)c2cc4cc([C@H]5CCOC(C)(C)C5)ccc4n2[C@@]2(c4noc(=O)[nH]4)C[C@@H]2C)CC3)cc(C)c1F [Orforglipron, orforglipron, reference compound]	11.2%	6840 ng·h/mL	2.47 mL/min/kg	8.13 h	1.42 L/kg	3420 ng·h/mL	240 ng/mL	4 h	7.44 h	–	–	–	–	–	–	–	–	–	–	–	Oral F ([6]; cynomolgus monkeys, 0.36 mg/kg po vs 0.12 mg/kg iv): 29.4%; AUC(0-inf) [6, 10]: 517 ng·h/mL; Vd [6, 10]: 0.846 L/kg; clearance [6, 10]: 3.98 mL/min/kg; half-life [6, 10]: 3.7 h; AUC(0-inf) [6, 11]: 456 ng·h/mL; Cmax [6, 11]: 79.5 ng/mL; Tmax [6, 11]: 1.33 h; half-life [6, 11]: 4.24 h
